Tests used:
[1] = tested on: FeCl3-induced inferior vena cava thrombosis; experiment: FeCl3-induced inferior vena cava thrombosis in rats; format: in vivo, rat
Procedure: (§1) 160 Rats were randomly divided into groups, 5 to 10 rats per group.
(§2) According to the body weight in kilograms of the rats, the first dose of a drug was dissolved in 2 mL of physiological saline for single bolus injection. The maintaining dose of drug was dissolved in 9 ml of physiological saline, and placed in a double-channel micro-injection pump, which was dripped off within 90 minutes at a dripping speed of 0.1 ml/min. The sham operation group was administered with the same volume of physiological saline.
(§3) The rats were fasted with free access to water overnight before the experiment.
15 minutes later, the filter paper was removed. And then, after observation for 45 minutes, the blood vessels and local tissues were rinsed with warm physiological saline, and the covered blood vessels were cut off. The thrombus which attached to the blood vessel walls was peeled off to be weighed on a tin foil for its wet weight, and then weighed overnight at room temperature for its dry weight. The administration was continued until the completion of the experiment.
After the experiment was completed, the segment of the blood vessels in which there had been thrombus formation was cut off, weighed for the wet weight, and then weighed overnight at room temperature for the dry weight of the thrombus. Thrombosis inhibitory rate was calculated.

[2] = tested on: blood coagulation function; experiment: TT in rabbits, single intravenous administration; format: in vivo, rabbit; settings: Before administration
Procedure: (§4) 1. Grouping and administration: 48 Rabbits were randomly divided into 6 groups, 8 rabbits per group. 1) Sham operation group (NS): Intravenous injection of the same volume of physiological saline; 2) positive control bivalirudin group (6 mg/kg); 3) positive control enoxaparin group (200 U/kg); 4) Low dose group of polypeptide 2 (3.0 mg/kg); 5) Medium dose group of polypeptide 2 (6.0 mg/kg); 6) High dose group of polypeptide 2 (12.0 mg/kg). Polypeptide 2 was administered by single intravenous administration. According to the body weight in kilograms of the rabbits, the sample was dissolved in 2 mL of physiological saline for single bolus injection. The sham operation group was administered with the same volume of physiological saline.
3.2 Determination of blood coagulation function: Blood samples were taken and the blood function (PT, TT, APTT) was determined at 0 min before administration, at points of 5 min and 15 min after administration, using a platelet-aggregation coagulation factor analyzer. Blood samples were centrifuged at 3510 rpm for 8 min to obtain platelet poor plasma (PPP). Reagent reconstruction and preservation were performed according to the operation requirements of the kit. Immediately after each blood sample was placed into a test cup and then added with PT. TT and APTT reagents, the test was started. After the test was completed, results were recorded.

[3] = tested on: femoral arterial and venous bypass thrombosis; experiment: Femoral arterial and venous bypass thrombosis in rabbits, single intravenous administration; format: in vivo, rabbit; settings: 15 min
Procedure: as §4
2.1 Surgery preparation of rabbits: Rabbit were sent to the laboratory for accommodation for one day, and then screened at first. Blood samples were taken from arteries within ears, which were subjected to blood routine analysis and APTT examinations, and the rabbits with a normal blood hemogram and APTT between 16 and 28 seconds were selected for experiments. The rabbits to be tested were fasted with free access to water in the night before the experiment. The rabbits were anesthetized with intravenous injection of 3% sodium pentobarbital solution at 1 ml/kg, fixed in the supine position, and then, the common carotid artery at one side, external jugular vein, femoral artery at one side, femoral vein, and forelimb vein at one side were isolated. The forelimb vein was subjected to intubation for administration; the left femoral vein was subjected to intubation for blood collection to determine the platelet aggregation rate: the femoral artery was used for the establishment of an arterial thrombosis model; the common carotid artery and external jugular vein were used for the establishment of an arterial and venous bypass thrombosis model.
2.2 Arterial and venous bypass thrombosis (AVST) model: An arterial and venous shunt consists of two casings, of which an outer casing has a length of about 8 cm and an inner diameter of 7.9 mm, the inner casing has a length of about 2.5 cm and an inner diameter of 4.8 mm. The polyethylene tube was charged with a silk thread about 8 cm long and filled with […] heparin solution, of which one end was inserted into the left femoral artery and the other end was inserted into the right femoral vein. After administration for 30 seconds, the blood flow was released, which flowed from the left artery to the polyethylene tube and returned to the right vein. After 15 minutes, the blood flow was interrupted, the silk thread was quickly removed and placed on an aluminum foil (size: 2.5 cm×2.5 cm), measured for its wet weight, and kept overnight at room temperature and weighed for its dry weight.
The femoral arteries in the […] and both sides in the rabbits were isolated and stabilized for 10 min before the administration was started. An AT model was established by covering the femoral artery with 50% FeCl3 filter paper while administration, and the filter paper was removed after covering for 15 minutes. An AVST model was established and it was taken out after […]. Observation was continued for 120 min after administration until the experiment was completed.
3.4 Thrombus weight: After the experiment was completed, the segment of the blood vessels in which there had been thrombus formation was cut off, weighed for the wet weight, and then kept overnight at room temperature and weighed for the dry weight. The thrombosis inhibitory rate was calculated with a calculation equation as follows: […]

[4] = tested on: blood coagulation function; experiment: PT in rats, intravenous maintenance administration; format: in vivo, rat
Procedure: as §1, §2, §3
The blood samples were taken before administration, administration for 60 minutes, and before termination of administration, respectively, to determine their activated partial thromboplastin time (APTT) and prothrombin time (PT). The blood samples were centrifuged at 3510 rpm for 8 minutes to obtain platelet poor plasma (PPP). Reagent reconstruction and preservation were performed according to the operation requirements of the kit. Immediately after each blood sample was placed into a test cup and then PT and APTT reagents were added, the test was started. After the test was completed, results were recorded.
5.1 Determination of blood coagulation function: The blood samples were taken 0 min before administration, administration for 60 minutes, and termination of administration, respectively, and then determined using a platelet-aggregation coagulation factor analyzer for the blood coagulation functions (PT. APTT) and ACT.

[5] = iv 0.041 + 0.125 (mg/kg + mg/kg/h)
[6] = iv 0.125 + 0.375 (mg/kg + mg/kg/h)
[7] = iv 0.25 + 0.75 (mg/kg + mg/kg/h)
[8] = iv 0.5 + 1.25 (mg/kg + mg/kg/h)
[9] = iv 1.5 + 3.75 (mg/kg + mg/kg/h)

## D-Phe Pro Arg Pro Gly Gly Gly Gly Asn Gly Asp Phe Glu Glu Ile Pro Glu Glu Tyr Leu Glu Ala Ala Ala Lys Cys Har Gly Asp Trp Pro Cys [Polypeptide 2]
[1]; [5]
  Inferior vena cava thrombosis Inhibition percentage: 10.38%
  Inferior vena cava thrombosis Thrombus weight: 20.20 ± 10.00 mg
[1]; [6]
  Inferior vena cava thrombosis Inhibition percentage: 27.99%
  Inferior vena cava thrombosis Thrombus weight: 16.23 ± 6.76 mg
[1]; [7]
  Inferior vena cava thrombosis Inhibition percentage: 36.85%
  Inferior vena cava thrombosis Thrombus weight: 14.23 ± 4.82 mg
[1]; [8]
  Inferior vena cava thrombosis Inhibition percentage: 58.96%
  Inferior vena cava thrombosis Thrombus weight: 9.25 ± 4.86 mg
[1]; iv 1 + 2.5 (mg/kg + mg/kg/h)
  Inferior vena cava thrombosis Inhibition percentage: 56.03%
  Inferior vena cava thrombosis Thrombus weight: 9.91 ± 6.20 mg
[1]; [9]
  Inferior vena cava thrombosis Inhibition percentage: 68.37%
  Inferior vena cava thrombosis Thrombus weight: 7.13 ± 3.46 mg
[2]; single iv 3.0 mg/kg
  TT: 21.0 ± 2.6 S
[2]; single iv 6.0 mg/kg
  TT: 22.3 ± 1.9 S
[2]; single iv 12.0 mg/kg
  TT: 21.8 ± 6.4 S
[3]; single iv 3.0 mg/kg
  Thrombus dry weight: 20.2 ± 4.3 mg
  Thrombus inhibitory rate: 14.48%
[3]; single iv 6.0 mg/kg
  Thrombus dry weight: 13.5 ± 5.3 mg
  Thrombus inhibitory rate: 42.80%
[3]; single iv 12.0 mg/kg
  Thrombus dry weight: 10.6 ± 6.8 mg
  Thrombus inhibitory rate: 55.24%
[4]; [5]
  PT Before administration: 10.74 ± 3.97
  PT Fold of change: 1.95 ± 1.27
  PT administration for 60 minutes: 18.95 ± 8.65
[4]; [6]
  PT Before administration: 11.21 ± 1.62
  PT Fold of change: 1.70 ± 0.34
  PT administration for 60 minutes: 19.00 ± 4.39
[4]; [7]
  PT Before administration: 11.19 ± 1.06
  PT Fold of change: 1.87 ± 0.50
  PT administration for 60 minutes: 20.82 ± 5.66
[4]; [8]
  PT Before administration: 10.58 ± 1.48
  PT Fold of change: 2.53 ± 0.73
[4]; iv 1 + 2.5 (mg/kg + mg/kg/h)
  PT Before administration: 10.53 ± 1.29
  PT Fold of change: 5.57 ± 2.74
  PT administration for 60 minutes: 56.65 ± 23.16
[4]; [9]
  PT Before administration: 11.98 ± 1.02
  PT Fold of change: 3.91 ± 1.89
  PT administration for 60 minutes: 46.64 ± 23.46

Source: US11643439B2, “Multi-target compound with anticoagulation and antiplatelet activity, preparation method therefor, and use thereof” (SHAANXI MICOT TECHNOLOGY LIMITED COMPANY, priority 2015, dated 2023)
